Assay: clinical
Conditions: human, in vivo, po

- fraction unbound: 0.04
SMILES: Nc1nc2ccc(OC(F)(F)F)cc2s1 [RILUZOLE]
